Results reported in ChEMBL document CHEMBL1201862, “PubChem BioAssay data set” (2004).
Activity calls are given as the source filed them.

Experiments:
[1] = molecular target: Sphingosine 1-phosphate receptor 2 (Homo sapiens, UniProt O95136); test: Dose Response Cell Based Assay for Agonists of the S1P2 Receptor of Purchased Analogues. [Related pubchem assays: 729, 843, 854, 736 ]; format: functional
[2] = molecular target: T1, Heat shock factor protein 1 (Mus musculus, UniProt P38532); test: decrease of HSF1-responsive luciferase luminescence – cell-based, NIH3T3, dose retest, confirmation (AID 2382); format: functional;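 further: NIH3T3 fibroblasts with HSF1-driven luciferase reporter stressed by proteasome inhibitor MG132; luminescence from HSF1-driven luciferase expression after 8 hours of MG132 stress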
T1 sequence (P38532 whole entry): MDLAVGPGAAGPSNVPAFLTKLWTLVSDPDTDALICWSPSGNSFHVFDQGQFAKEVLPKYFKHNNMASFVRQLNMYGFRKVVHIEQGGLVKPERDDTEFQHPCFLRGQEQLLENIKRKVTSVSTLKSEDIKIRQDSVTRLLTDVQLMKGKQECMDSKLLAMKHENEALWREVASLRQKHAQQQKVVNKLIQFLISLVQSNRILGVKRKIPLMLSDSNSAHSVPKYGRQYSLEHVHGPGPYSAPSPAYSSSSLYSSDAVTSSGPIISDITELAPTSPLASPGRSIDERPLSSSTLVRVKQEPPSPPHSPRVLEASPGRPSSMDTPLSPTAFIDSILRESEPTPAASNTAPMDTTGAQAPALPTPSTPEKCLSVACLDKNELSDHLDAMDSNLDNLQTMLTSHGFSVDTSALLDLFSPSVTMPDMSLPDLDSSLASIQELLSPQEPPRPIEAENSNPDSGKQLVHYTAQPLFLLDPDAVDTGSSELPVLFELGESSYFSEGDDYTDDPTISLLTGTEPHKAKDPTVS

[3] = molecular target: T2, Mannose-6-phosphate isomerase (Homo sapiens, UniProt P34949); test: MPI enzyme activity inhibition – biochemical, fluorescence intensity, coupled assay, primary screen (AID 1209)
T2 sequence (P34949 whole entry): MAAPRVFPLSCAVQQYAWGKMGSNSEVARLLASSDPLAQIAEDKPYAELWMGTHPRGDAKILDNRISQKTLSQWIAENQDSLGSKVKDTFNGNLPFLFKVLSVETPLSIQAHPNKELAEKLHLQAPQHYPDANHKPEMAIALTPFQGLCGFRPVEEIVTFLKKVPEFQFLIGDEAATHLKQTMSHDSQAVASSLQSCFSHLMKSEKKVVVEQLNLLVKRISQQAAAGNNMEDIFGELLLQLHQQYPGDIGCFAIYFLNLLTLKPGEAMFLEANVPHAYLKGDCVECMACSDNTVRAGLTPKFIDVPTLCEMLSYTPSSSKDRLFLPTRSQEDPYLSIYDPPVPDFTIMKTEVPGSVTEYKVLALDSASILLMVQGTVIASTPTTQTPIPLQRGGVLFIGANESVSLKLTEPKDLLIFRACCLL

[4] = molecular target: T2, Mannose-6-phosphate isomerase; test: MPI inhibition at elevated mannose 6-phosphate – biochemical, fluorescence intensity, high mannose 6-phosphate, primary screen (AID 1220)
Nonstructural protein 1 = Nonstructural protein 1 (Influenza A virus, UniProt Q194T2); format: functional, Influenza A virus (A/California/07/2009(H1N1))
INS1 = test: INS-1E survival protection against cytokine death – cell-based, luminescence, retest, dose response (AID 449756); format: functional; details: Rattus norvegicus;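 further: cell death triggered by IL-1 beta plus TNF-alpha plus IFN-gamma mixture; protective hits raise ATP signal compared with cytokine alone wells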
[5] = molecular target: T3, Polyadenylate-binding protein 1 (Homo sapiens, UniProt P11940); test: MLLE binding blockers, Cy5 peptide tracer – biochemical, fluorescence polarization, Cy5-PAM2 peptide, secondary, miRNA deadenylation inhibitor project, dose response (AID 602260); format: functional; details: read-out: IC50_Mean
[6] = reduction of Shn3 3'UTR-driven luciferase in osteoblasts – cell-based, Clone20 osteoblasts, firefly luciferase, cherry-picked, dose response (AID 624132); format: functional;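 further: firefly luciferase luminescence from reporter carrying the Shn3 3'UTR in osteoblasts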
[7] = molecular target: T3, Polyadenylate-binding protein 1; test: MLLE domain peptide-binding blockers, IC50 – biochemical, fluorescence polarization, FITC-PAM2 peptide, dose response (AID 602259); format: functional; details: read-out: IC50_Mean
[8] = loss of viability in HepG2 cells – cell-based, CellTiter-Glo, cherry-picked, cytotoxicity control for Shn3 inhibitor project, dose response (AID 624134); format: functional
[9] = non-specific 3'UTR reporter inhibition in Clone20-Shn3RL – cell-based, Renilla luciferase, cherry-picked, counter-screen for Shn3 inhibitor project, dose response (AID 624133); format: functional
NADPH oxidase 1 = NADPH oxidase 1 (Homo sapiens, UniProt Q9Y5S8); format: functional, cell-based;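 further: Cell-based assay with luminescence read-out, IC50 derived from inhibitor dose-response curves; intracellular ROS from endogenous NOX1 in intact HT29 colon cancer cells; potency of inhibitors that lower the ROS luminescence signal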
[10] = Late stage counterscreen results from the probe development effort to identify activators of signal transducer and activator of transcription 1 (STAT1): luminescence-based cell-based dose response assay to identify cytotoxic compounds.; format: functional
[11] = molecular target: T4, Endoribonuclease toxin MazF (Escherichia coli K-12, UniProt P0AE70); test: activation of MazEF endoribonuclease cleavage – biochemical, fluorescence, single-stranded RNA substrate, uHTS hits, dose response (AID 588481); format: functional
T4 sequence (P0AE70 whole entry): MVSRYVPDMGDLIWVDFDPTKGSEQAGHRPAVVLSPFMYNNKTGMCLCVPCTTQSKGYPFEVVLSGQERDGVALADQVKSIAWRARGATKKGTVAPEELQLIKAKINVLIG

[12] = molecular target: T4, Endoribonuclease toxin MazF; test: substrate-only fluorescence increase artefacts – biochemical, single-stranded RNase substrate, counter-screen for MazEF activator project, dose response (AID 588502); format: functional
Bcl-2-like protein 10 = molecular target: T5, Bcl-2-like protein 10 (Homo sapiens, UniProt Q9HD36); test: Bcl-B/TR3 peptide binding disruption – biochemical, fluorescence polarization, FITC-TR3 peptide, selectivity assay for Bfl-1 inhibitor project, primary screen (AID 748);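 further: fluorescence polarization from a fluorescein-labelled TR3 peptide binding purified Bcl-B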
T5 sequence (Q9HD36 whole entry): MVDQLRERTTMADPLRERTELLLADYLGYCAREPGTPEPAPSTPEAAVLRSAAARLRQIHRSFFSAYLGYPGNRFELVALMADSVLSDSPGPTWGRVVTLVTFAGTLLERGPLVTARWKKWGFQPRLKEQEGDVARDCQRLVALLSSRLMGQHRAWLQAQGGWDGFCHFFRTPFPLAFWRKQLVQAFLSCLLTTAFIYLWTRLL

[13] = molecular target: Protein-tyrosine kinase 2-beta (Homo sapiens, UniProt Q14289);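 further: potency of inhibitors of PYK2 kinase phosphorylation of poly-GT substrate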
[14] = molecular target: T6, Induced myeloid leukemia cell differentiation protein Mcl-1 (Homo sapiens, UniProt Q07820); format: functional
[15] = molecular target: Peroxisome proliferator-activated receptor gamma/Nuclear receptor coactivator 1 (Homo sapiens, UniProt P37231); test: (§1) TR-FRET dose response biochemical High Throughput Screening assay for agonists of the steroid receptor coactivator 1 (SRC-1) recruitment by the peroxisome proliferator-activated receptor gamma (PPAR gamma): non-selective agonists. [Related pubchem assays (depositor defined):AID1300, AID1808, AID504735, AID631]; format: protein assay
[16] = molecular target: Peroxisome proliferator-activated receptor gamma/Nuclear receptor coactivator 3 (Homo sapiens, UniProt P37231); test: as §1, with “3 (SRC-3)” for “1 (SRC-1)”, “assays: 1301 (Confirmation screen.), 1048 (Primary screen.)]” for “assays (depositor defined):AID1300, AID1808, AID504735, AID631]”; format: functional
[17] = RAM pathway signaling blockade in S. cerevisiae – dose response (AID 1307); format: functional
[18] = molecular target: Peroxisome proliferator-activated receptor gamma/Nuclear receptor coactivator 2 (Homo sapiens, UniProt P37231); test: TR-FRET dose response biochemical High Throughput Screening assay for agonists of the steroid receptor coactivator 2 (SRC-2) recruitment by the peroxisome proliferator-activated receptor gamma (PPAR gamma): non-selective agonists. [Related pubchem assays: 1297, 1032 ]; format: functional
[19] = molecular target: 26S proteasome non-ATPase regulatory subunit 14 (Homo sapiens, UniProt O00487); test: inhibition of proteasome subunit RPN11 – biochemical, fluorescence polarization, uHTS hits, confirmation (AID 602368); format: functional
[20] = molecular target: 72 kDa type IV collagenase (Homo sapiens, UniProt P08253); test: Dose Response validation of uHTS RPN11 inhibitor hits using a MMP-2 Fluorescence assay.; format: functional
Prothrombin = Prothrombin (Bos taurus, UniProt P00735); test: thrombin protease inhibitors – biochemical, fluorescence polarization, uHTS hits, dose response (AID 602369); format: functional
[21] = molecular target: T6, Induced myeloid leukemia cell differentiation protein Mcl-1; test: blockers of MCL1 binding to BIM peptide – biochemical, fluorescence polarization, BIM-BH3 peptide, 1536-well, dose response (AID 2217)
Bcl-2-like protein 1 = Bcl-2-like protein 1 (Homo sapiens, UniProt Q07817); test: blockers of BCLXL peptide binding – biochemical, fluorescence polarization, 1536-well, selectivity assay for MCL1 inhibitor project, dose response (AID 2218)
Genome polyprotein = Genome polyprotein (dengue virus type 2, UniProt P29990); test: flavivirus cap methylation enzyme inhibition – biochemical, confirmation dose response, primary screen (AID 588689); format: functional
[22] = molecular target: T7, Tyrosine-protein phosphatase non-receptor type 7 (Homo sapiens, UniProt P35236); test: HePTP tyrosine phosphatase activity blockers – biochemical, absorbance, leukemia target, primary screen (AID 521); format: functional
T7 sequence (P35236 whole entry): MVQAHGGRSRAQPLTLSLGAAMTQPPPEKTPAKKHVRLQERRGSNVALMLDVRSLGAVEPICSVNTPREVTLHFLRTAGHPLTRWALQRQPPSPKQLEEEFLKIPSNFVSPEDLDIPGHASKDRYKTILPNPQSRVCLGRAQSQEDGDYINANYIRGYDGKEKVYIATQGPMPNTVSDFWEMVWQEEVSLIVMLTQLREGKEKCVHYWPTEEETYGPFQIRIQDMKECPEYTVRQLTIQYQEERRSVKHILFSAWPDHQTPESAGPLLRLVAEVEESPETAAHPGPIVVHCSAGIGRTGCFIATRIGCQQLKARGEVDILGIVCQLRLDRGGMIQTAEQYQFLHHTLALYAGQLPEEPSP

[23] = HPDE-C7 pancreatic duct cell viability loss – fluorescence, HTS (AID 430); format: functional, cell-based; details: Homo sapiens
[24] = viability loss of HPDE-C7K cells – cell-based, fluorescence, HTS, primary screen (AID 431); format: functional; details: Homo sapiens
Estrogen receptor beta [25] = molecular target: T8, Estrogen receptor beta (Homo sapiens, UniProt Q92731);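 further: recombinant ER-beta bound to coactivator SRC1 peptide in presence of estradiol agonist; inhibitors block coactivator peptide binding and lower the FRET signal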
Estrogen receptor beta [26] = molecular target: T8, Estrogen receptor beta; test: blockers of SRC-3 recruitment to ERβ – biochemical, ELISA, streptavidin-HRP readout, orthogonal assay, confirmation (AID 1060)
[27] = molecular target: T1, Heat shock factor protein 1; test: enhancement of HSF1-driven luciferase signal – cell-based, NIH3T3, luminescence, dose retest, confirmation (AID 435004); format: functional;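 further: stress induced by proteasome inhibitor MG132 added 30 min after compound; luciferase reporter driven by HSF1 response element in NIH3T3 cells; actives raise luminescence as potentiators of the MG132 stress response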
Cytochrome P450 2D6 = Cytochrome P450 2D6 (Homo sapiens, UniProt P10635);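 further: CYP2D6 member of a cytochrome P450 panel assay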

T3 sequence (P11940 whole entry): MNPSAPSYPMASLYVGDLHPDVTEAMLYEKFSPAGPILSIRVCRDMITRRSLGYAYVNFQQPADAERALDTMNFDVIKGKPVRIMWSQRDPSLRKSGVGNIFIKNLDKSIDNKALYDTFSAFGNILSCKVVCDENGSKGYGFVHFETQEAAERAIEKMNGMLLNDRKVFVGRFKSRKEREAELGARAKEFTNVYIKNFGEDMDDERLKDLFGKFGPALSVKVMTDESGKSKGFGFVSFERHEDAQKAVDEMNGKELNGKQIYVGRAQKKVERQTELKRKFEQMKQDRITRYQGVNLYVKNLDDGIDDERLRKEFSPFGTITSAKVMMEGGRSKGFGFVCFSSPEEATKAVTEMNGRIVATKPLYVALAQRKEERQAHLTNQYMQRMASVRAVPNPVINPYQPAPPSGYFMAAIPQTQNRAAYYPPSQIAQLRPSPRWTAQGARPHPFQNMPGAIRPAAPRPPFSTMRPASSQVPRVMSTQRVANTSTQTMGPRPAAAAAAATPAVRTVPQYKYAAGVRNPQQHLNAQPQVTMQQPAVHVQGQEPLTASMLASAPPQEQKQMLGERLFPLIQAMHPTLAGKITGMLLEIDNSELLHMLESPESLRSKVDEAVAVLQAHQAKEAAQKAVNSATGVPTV
T8 sequence (Q92731 whole entry): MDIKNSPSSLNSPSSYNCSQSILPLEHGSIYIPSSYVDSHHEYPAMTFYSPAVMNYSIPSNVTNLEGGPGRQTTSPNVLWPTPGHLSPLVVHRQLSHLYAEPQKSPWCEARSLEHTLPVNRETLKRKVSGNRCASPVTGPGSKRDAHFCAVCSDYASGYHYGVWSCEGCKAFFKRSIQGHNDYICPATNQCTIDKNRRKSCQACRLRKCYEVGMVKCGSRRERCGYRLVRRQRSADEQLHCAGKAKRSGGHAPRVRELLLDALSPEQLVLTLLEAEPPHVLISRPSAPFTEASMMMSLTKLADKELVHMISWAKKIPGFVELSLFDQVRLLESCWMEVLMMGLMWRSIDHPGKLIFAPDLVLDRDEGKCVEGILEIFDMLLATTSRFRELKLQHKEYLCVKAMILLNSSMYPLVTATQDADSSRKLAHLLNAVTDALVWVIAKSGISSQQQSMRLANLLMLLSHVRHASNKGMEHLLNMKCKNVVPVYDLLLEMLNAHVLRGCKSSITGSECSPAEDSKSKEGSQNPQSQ
Sequence of Nonstructural protein 1 (Q194T2 whole entry): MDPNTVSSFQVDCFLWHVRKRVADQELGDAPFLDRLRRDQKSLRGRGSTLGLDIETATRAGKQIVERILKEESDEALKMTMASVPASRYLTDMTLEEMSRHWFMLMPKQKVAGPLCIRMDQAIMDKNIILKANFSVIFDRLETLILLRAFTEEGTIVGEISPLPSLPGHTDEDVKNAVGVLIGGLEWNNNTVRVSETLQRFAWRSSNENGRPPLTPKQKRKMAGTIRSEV
T6 sequence (Q07820 whole entry): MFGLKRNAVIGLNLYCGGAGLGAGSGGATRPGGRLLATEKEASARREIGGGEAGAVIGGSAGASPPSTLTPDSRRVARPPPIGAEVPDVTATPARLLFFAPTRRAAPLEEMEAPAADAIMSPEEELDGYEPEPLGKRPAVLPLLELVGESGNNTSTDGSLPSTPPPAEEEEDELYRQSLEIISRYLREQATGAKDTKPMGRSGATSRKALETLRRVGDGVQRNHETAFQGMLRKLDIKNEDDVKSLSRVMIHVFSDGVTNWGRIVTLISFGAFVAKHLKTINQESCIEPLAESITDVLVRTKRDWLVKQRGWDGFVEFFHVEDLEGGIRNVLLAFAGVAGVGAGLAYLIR
Sequence of Peroxisome proliferator-activated receptor gamma/Nuclear receptor coactivator 1 (P37231 whole entry): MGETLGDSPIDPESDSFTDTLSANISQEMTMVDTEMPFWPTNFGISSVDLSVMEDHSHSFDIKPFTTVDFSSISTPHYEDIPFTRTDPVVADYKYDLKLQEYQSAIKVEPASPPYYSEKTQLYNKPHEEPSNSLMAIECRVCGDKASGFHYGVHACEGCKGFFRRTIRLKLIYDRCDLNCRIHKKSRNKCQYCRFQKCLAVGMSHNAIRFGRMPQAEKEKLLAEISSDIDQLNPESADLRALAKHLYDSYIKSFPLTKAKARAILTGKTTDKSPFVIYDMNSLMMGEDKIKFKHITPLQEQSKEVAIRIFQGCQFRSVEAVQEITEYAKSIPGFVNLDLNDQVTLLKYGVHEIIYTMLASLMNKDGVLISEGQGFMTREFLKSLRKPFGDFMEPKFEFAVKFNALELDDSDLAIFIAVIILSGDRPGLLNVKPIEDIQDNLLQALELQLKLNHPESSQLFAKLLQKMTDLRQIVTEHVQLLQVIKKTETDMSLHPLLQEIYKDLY
Sequence of Peroxisome proliferator-activated receptor gamma/Nuclear receptor coactivator 1 (Q15788 whole entry, further chain): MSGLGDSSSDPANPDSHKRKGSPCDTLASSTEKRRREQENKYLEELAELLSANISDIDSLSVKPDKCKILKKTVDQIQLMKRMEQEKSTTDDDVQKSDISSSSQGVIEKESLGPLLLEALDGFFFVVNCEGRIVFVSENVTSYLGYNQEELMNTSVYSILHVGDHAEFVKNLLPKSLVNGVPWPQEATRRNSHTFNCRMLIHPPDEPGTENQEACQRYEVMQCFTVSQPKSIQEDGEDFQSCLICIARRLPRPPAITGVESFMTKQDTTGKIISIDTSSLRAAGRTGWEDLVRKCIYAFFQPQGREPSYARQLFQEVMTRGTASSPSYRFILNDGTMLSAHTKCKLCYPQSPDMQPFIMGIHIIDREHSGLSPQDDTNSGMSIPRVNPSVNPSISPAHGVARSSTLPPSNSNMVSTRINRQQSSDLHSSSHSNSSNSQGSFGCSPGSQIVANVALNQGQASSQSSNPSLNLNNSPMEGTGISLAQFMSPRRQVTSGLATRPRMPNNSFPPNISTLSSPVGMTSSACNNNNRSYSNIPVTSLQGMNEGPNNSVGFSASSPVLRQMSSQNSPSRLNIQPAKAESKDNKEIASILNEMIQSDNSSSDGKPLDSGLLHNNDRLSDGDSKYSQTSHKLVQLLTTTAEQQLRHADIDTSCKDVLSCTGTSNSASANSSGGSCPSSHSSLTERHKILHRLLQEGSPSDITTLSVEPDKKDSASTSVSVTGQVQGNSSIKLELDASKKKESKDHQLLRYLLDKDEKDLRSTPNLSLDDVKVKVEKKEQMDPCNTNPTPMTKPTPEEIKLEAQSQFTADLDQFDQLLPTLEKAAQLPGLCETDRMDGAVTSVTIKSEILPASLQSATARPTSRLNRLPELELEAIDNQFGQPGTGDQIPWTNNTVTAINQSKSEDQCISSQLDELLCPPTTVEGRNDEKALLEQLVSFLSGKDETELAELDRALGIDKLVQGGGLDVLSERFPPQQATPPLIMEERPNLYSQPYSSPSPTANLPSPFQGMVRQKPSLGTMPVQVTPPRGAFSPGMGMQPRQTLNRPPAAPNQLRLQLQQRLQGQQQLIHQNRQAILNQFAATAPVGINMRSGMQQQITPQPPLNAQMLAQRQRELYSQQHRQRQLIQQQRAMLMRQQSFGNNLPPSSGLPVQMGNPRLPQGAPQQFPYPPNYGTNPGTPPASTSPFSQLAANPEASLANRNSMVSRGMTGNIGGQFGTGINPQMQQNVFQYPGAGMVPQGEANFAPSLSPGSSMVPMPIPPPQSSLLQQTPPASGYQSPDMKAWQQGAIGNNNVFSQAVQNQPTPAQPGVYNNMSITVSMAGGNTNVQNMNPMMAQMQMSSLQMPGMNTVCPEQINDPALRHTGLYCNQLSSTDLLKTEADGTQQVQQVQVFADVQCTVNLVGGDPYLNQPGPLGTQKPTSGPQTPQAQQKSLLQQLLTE
Sequence of NADPH oxidase 1 (Q9Y5S8 whole entry): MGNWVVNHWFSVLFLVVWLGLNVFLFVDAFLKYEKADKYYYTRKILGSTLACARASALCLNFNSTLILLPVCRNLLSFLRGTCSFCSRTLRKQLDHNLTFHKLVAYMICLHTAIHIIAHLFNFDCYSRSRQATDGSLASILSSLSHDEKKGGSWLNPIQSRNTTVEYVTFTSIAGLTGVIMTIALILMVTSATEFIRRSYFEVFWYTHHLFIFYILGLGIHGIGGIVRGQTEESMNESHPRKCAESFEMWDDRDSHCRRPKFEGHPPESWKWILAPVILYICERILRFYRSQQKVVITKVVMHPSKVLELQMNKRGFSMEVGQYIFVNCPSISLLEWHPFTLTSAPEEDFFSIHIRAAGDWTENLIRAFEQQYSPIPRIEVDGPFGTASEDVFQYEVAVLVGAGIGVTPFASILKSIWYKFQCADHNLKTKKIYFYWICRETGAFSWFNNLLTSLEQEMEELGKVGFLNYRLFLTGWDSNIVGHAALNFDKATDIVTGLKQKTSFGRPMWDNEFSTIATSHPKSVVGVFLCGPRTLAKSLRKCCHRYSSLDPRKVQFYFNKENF
Sequence of Bcl-2-like protein 1 (Q07817 whole entry): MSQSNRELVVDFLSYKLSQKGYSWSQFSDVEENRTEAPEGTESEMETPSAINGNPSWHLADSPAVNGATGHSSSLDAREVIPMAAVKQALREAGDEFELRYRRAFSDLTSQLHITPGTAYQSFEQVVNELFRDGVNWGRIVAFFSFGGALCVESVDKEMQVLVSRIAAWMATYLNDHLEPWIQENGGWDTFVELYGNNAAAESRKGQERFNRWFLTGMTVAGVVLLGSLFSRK
Sequence of 26S proteasome non-ATPase regulatory subunit 14 (O00487 whole entry): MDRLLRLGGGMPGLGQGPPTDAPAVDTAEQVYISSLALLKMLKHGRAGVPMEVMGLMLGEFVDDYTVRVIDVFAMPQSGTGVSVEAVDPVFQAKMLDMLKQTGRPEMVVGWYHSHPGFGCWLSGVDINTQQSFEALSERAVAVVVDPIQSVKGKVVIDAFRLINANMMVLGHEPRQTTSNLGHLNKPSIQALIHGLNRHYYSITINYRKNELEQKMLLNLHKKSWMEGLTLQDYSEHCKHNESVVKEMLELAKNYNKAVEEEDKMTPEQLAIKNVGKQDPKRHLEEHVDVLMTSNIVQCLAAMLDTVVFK

Cc1cc(C(=O)Cn2cnc3c(oc4ccccc43)c2=O)c(C)n1Cc1ccccc1
EC50 [1]: > 30 µM (not active)

Oc1ccc(CN2CCCc3ccccc32)c2cccnc12
EC50 [2]: 29 µM (active)
IC50 [3]: > 50 µM (not active)
IC50 [4]: > 50 µM (not active)
IC50 (Nonstructural protein 1): 32.2 µM (active)
AC50 (INS1): 11.8 µM (active)
IC50 [5]: > 66 µM (inactive)
AC50 [6]: 5.4 µM (active)
IC50 [7]: > 66 µM (inactive)
AC50 [8]: 8.25 µM (active)
AC50 [9]: 17.3 µM (active)

O=C(CCC(=O)Nc1ccccc1)Nc1ccccc1
IC50 (NADPH oxidase 1): > 17 µM (not active)

CCN(CC)c1ccc2cc(C(=O)Nc3ccccn3)c(=O)oc2c1
IC50 [10]: > 55.7 µM (not active)
EC50 [11]: > 99 µM (inactive)
EC50 [12]: > 99 µM (inactive)

Cn1c(SCC(=O)Nc2ccc3nc(SCC(=O)N4CCCC4)sc3c2)nnc1-c1ccc(N)cc1
IC50 (Bcl-2-like protein 10): 58.3 µM (inactive)
IC50 [13]: 2.5 µM (active)
IC50 [14]: 1.82 µM (active)

CN(C)c1ccc(/C=C/C=C2/C(=O)NC(=O)N(c3ccccc3)C2=O)cc1
EC50 [15]: > 2.94 µM (inactive)
EC50 [16]: > 79.4 µM (not active)
IC50 [17]: 317 µM (active)
EC50 [18]: 4.13 µM (active)
IC50 (Nonstructural protein 1): 12.1 µM (active)
IC50 [19]: 28.2 µM (active)
IC50 [20]: 71.2 µM (active)
IC50 (Prothrombin): 19.6 µM (active)

CCc1sc(C(C2C(=O)CC(C)(C)CC2=O)C2C(=O)CC(C)(C)CC2=O)cc1[N+](=O)[O-]
IC50 [21]: 6.08 µM (active)
IC50 (Bcl-2-like protein 1): > 109 µM (not active)
IC50 (Genome polyprotein): 16.4 µM (active)

CCn1c(SCC(=O)N2CCOCC2)nc2oc3c(Cl)cc(Cl)cc3c(=O)c2c1=O
IC50 [22]: > 100 µM (not active)
EC50 [23]: > 20 µM (not active)
EC50 [24]: > 20 µM (not active)
IC50 (Estrogen receptor beta [25]): 17.2 µM (active)
IC50 (Estrogen receptor beta [26]): 13.3 µM (not active)
EC50 [27]: 16.1 µM (inconclusive)
AC50 (Cytochrome P450 2D6): 15.8 µM (inconclusive)
